How the values were obtained:
Format in all cases: in vivo
[1] = test system: cotton aphid (Aphis gossypii); assay: Aphis gossypii test (cotton seed treatment)
Protocol: (§1) The expected efficacy of a given combination of two compounds is calculated as follows (see Colby, S. R., “Calculating Synergistic and antagonistic Responses of Herbicide Combinations”, Weeds 15, pp. 20-22, 1967):
(§2) If • X is the efficacy expressed in % mortality of the untreated control for test compound A at a concentration of m ppm respectively m g/ha, • Y is the efficacy expressed in % mortality of the untreated control for test compound B at a concentration of n ppm respectively n g/ha, • E is the efficacy expressed in % mortality of the untreated control using the mixture of A and B at m and n ppm respectively m and n g/ha, then is
(§3) If the observed insecticidal efficacy of the combination is higher than the one calculated as “E”, then the combination of the two compounds is more than additive, i.e., there is a synergistic effect.
(§4) If not mentioned otherwise, the crystalline modification I of 4-{[(6-chloropyrid-3-yl)methyl](methyl)amino}furan-2(5H)-one has been prepared as a water-dispersible or water-soluble powder in an active ingredient concentration of 70% (wt/wt) involving the following formulation auxiliaries, whereas the amount of auxiliaries sums up to 100 wt. %:
(§5) The auxiliaries were mixed with the appropriate amount of the crystalline modification I of 4-{[(6-chloropyrid-3-yl)methyl](methyl)amino}furan-2(5H)-one. There is no water or solvent added. To enable the dry mixture to stick on the seed, the seed were treated with a minimal amount of water, namely […] for 2 g canola seeds, and 800 μl für 20 g cotton seeds
Cotton seeds were treated with the compounds or mixtures and sown. 10 days after germination the plants were infested with a mixed population of the cotton aphid (Aphis gossypii). After the specified period of time, the mortality in % is determined. 100% means that all the aphids have been killed; 0% means that none of the aphids have been killed.

[2] = test system: larvae of the mustard beetle (Phaedon cochleariae); assay: Phaedon cochleariae larvae test (oil seed rape seed treatment)
Protocol: as §1, §2, §3, §4, §5
(§6) Seeds of Oil seed rape were treated with the compounds or mixtures and sown. Ca. 35 days after germination the plants were infested with a larvae of the mustard beetle (Phaedon cochleariae). After the specified period of time, the mortality in % is determined. 100% means that all the beetle larvae have been killed; 0% means that none of the beetle larvae have been killed.

[3] = test system: green peach aphid (Myzus persicae); assay: Myzus persicae test (oil seed rape seed treatment)
Protocol: as §1, §2, §3, §4, §5
as §6, with “mixed population” for “larvae”, “green peach aphid (Myzus persicae).” for “mustard beetle (Phaedon cochleariae).”, “aphids” for “beetle larvae”

## CON=C(C(=O)OC)c1ccccc1CON=C(C)c1cccc(C(F)(F)F)c1 [Trifloxystrobin]
[1]; 0.5 mg ai/grain
  Kill rate [in % after 1 day]: 0%

## O=C(NCc1ncc(C(F)(F)F)cc1Cl)c1c(Cl)cccc1Cl [Fluopicolide]
[2]; 1 mg ai/grain
  Kill rate [in % after 5 days]: 0%

## CCC1(C(=O)N[C@H](C)c2ccc(Cl)cc2)C(C)C1(Cl)Cl (some centres unmarked) [Carpropamid]
[1]; 0.5 mg ai/grain
  Kill rate [in % after 1 day]: 0%

## CSC1=N[C@@](C)(c2ccccc2)C(=O)N1Nc1ccccc1 [Fenamidone]
[3]; 0.5 mg ai/grain
  Kill rate [in % after 3 days]: 0%
  Kill rate [in % after 7 days]: 0%

## CCO[PH](=O)O [Fosetyl-Al]
[3]; 1 mg ai/grain
  Kill rate [in % after 2 days]: 0%

## Cn1cc(C(=O)Nc2ccc(F)cc2-c2ccc(Cl)c(Cl)c2)c(C(F)F)n1 [Bixafen]
[1]; 0.5 mg ai/grain
  Kill rate [in % after 2 days]: 0%

## CC1(C(=O)Nc2ccc(O)c(Cl)c2Cl)CCCCC1 [Fenhexamid]
[1]; 0.5 mg ai/grain
  Kill rate [in % after 2 days]: 0%

## N#Cc1c[nH]cc1-c1cccc2c1OC(F)(F)O2 [Fluodioxonil, Fludioxonil]
[2]; 05 mg ai/grain (so in the source)
  Kill rate [in % after 4 days]: 0%

## CN(Cc1ccc(Cl)nc1)C1=CC(=O)OC1 [4-{[(6-chloropyrid-3-yl)methyl](methyl)amino}furan-2(5H)-one]
[3]; 0.01 mg ai/grain
  Kill rate [in % after 2 days]: 10%
  Kill rate [in % after 7 days]: 0%
[3]; 0.025 mg ai/grain
  Kill rate [in % after 3 days]: 0%
[2]; 0.01 mg ai/grain
  Kill rate [in % after 4 days]: 0%
[2]; 0.025 mg ai/grain
  Kill rate [in % after 5 days]: 5.56%
[1]; 0.01 mg ai/grain
  Kill rate [in % after 2 days]: 63%
[1]; 0.025 mg ai/grain
  Kill rate [in % after 1 day]: 0%
  Kill rate [in % after 2 days]: 80%
